Tested on: Pneumocystis carinii
Assay: Treatment of Pneumocystis carinii pneumonia in Sprague-Dawley rats (extent of disease by histologic score)
Assay type: in vivo, male Sprague-Dawley rats
Settings: for Extent of Disease by Histologic Score: number of animals with score 0.5 / Extent of Disease by Histologic Score: number of animals with score 1 / Extent of Disease by Histologic Score: number of animals with score 2 / Extent of Disease by Histologic Score: number of animals with score 3 / Extent of Disease by Histologic Score: number of animals with score 4: 10 mg/kg i.v. daily, 14 days; for Extent of Disease by Histologic Score: number of animals with score 0.5 / Extent of disease by histologic score (combined): number of animals in scoring group 0.5: 0.5 = <10 cysts found per 2 sections; for Extent of Disease by Histologic Score: number of animals with score 1 / Extent of disease by histologic score (combined): number of animals in scoring group 1: 1 = scattered cysts, <5% of lung involved; for Extent of Disease by Histologic Score: number of animals with score 2 / Extent of disease by histologic score (combined): number of animals in scoring group 2: 2 = scattered cysts; for Extent of Disease by Histologic Score: number of animals with score 2: 5-10% lung involved or small foci of infection; for Extent of Disease by Histologic Score: number of animals with score 3 / Extent of disease by histologic score (combined): number of animals in scoring group 3: 3 = scattered cysts; for Extent of Disease by Histologic Score: number of animals with score 3: 10-50% of lung involved with some intense areas of infection; for Extent of Disease by Histologic Score: number of animals with score 4: 4 = >50% of lung involved with many intense areas of focal infection; for Extent of disease by histologic score (combined): number of animals in scoring group 0.5 / Extent of disease by histologic score (combined): number of animals in scoring group 1 / Extent of disease by histologic score (combined): number of animals in scoring group 2 / Extent of disease by histologic score (combined): number of animals in scoring group 3 / Extent of disease by histologic score (combined): number of animals in scoring group 4: Table XII composite, 10 mg/kg; for Extent of disease by histologic score (combined): number of animals in scoring group 2: 5-10% of lung involved; for Extent of disease by histologic score (combined): number of animals in scoring group 3: 10-50% of lung involved; for Extent of disease by histologic score (combined): number of animals in scoring group 4: 4 = >50% of lung involved; for Efficacy in treating PCP compared with related compounds of the series: effect of chain length or substituent
Experimental: Induction and Treatment Of Pneumocystis Carinii in Sprague-Dawley Rats
Male Sprague-Dawley rats, barrier raised, non-certified virus free, weighing 150-200g were obtained from Hilltop Laboratories and housed individually. Animals were begun on a low (8%) protein diet (ICN Biomedicals, Cincinnati, OH) and drinking water containing tetracycline (0.5 mg/ml) and dexamethasone (1.0 μg/ml) immediately upon arrival. This treatment was given for the next 8 weeks, monitoring fluid intake daily and weighing animals weekly. Dilutions of the drinking solution were made when animals consumed too much fluid so as to prevent cortisone poisoning. At the beginning of the sixth week, animals were divided into groups of 8 animals each and the test compounds were administered daily by i.v. injection at a dose of 10 mg/kg, unless otherwise noted, for the next 14 days.
Animals were sacrificed at the end of the eighth week by chloroform inhalation and the left lung was removed aseptically and placed in sterile Hank's balanced salts solution without calcium or magnesium (HBSS-) for the ground tissue procedure. The right lung was inflated in situ with 10% […] and removed for histologic examination GMS staining. […]

[1] = 10 mg/kg unless otherwise noted

Row | SMILES | Extent of Disease by Histologic Score: number of animals with score 0.5 | Extent of Disease by Histologic Score: number of animals with score 1 | Extent of Disease by Histologic Score: number of animals with score 2 | Extent of Disease by Histologic Score: number of animals with score 3 | Extent of Disease by Histologic Score: number of animals with score 4 | Efficacy in treating PCP compared with control [1] | Efficacy in treating PCP compared with pentamidine [1] | Extent of disease by histologic score (combined): number of animals in scoring group 0.5 | Extent of disease by histologic score (combined): number of animals in scoring group 1 | Extent of disease by histologic score (combined): number of animals in scoring group 2 | Extent of disease by histologic score (combined): number of animals in scoring group 3 | Extent of disease by histologic score (combined): number of animals in scoring group 4 | Efficacy in treating PCP compared with related compounds of the series
1 | N=C(N)c1ccc(NCCNc2ccc(C(=N)N)cc2N)c(N)c1 [Example 33] | 0 animals | 0 animals | 4 animals | 3 animals | 1 animals | better than the control | worse than pentamidine | 0 animals | 0 animals | 4 animals | 3 animals | 1 animals | 
2 | N=C(N)c1ccc(NCCCNc2ccc(C(=N)N)cc2N)c(N)c1 [Example 36] | 1 animals | 4 animals | 2 animals | 0 animals | 0 animals |  |  | 1 animals | 4 animals | 2 animals | 0 animals | 0 animals | better than the nitro substituted compounds
3 | N=C(N)c1ccc(NCCCCNc2ccc(C(=N)N)cc2N)c(N)c1 [Example 37] | 0 animals | 4 animals | 3 animals | 1 animals | 0 animals |  |  | 0 animals | 4 animals | 3 animals | 1 animals | 0 animals | better than the nitro substituted compounds
4 | N=C(N)c1ccc(NCCCCCCNc2ccc(C(=N)N)cc2)cc1 [Example 39] | 2 animals | 1 animals | 0 animals | 0 animals | 0 animals |  |  |  |  |  |  |  | 
5 | c1cc(C2=NCCN2)ccc1OCCCCOc1ccc(C2=NCCN2)cc1 [Example 40] | 1 animals | 2 animals | 3 animals | 1 animals | 0 animals | significantly better than the control |  | 1 animals | 2 animals | 3 animals | 1 animals | 0 animals | 
